# US5441563A, “Highly insoluble azole embossing inhibitor and the use thereof” (Armstrong World Industries, Inc., priority 1994, dated 1995)
# Where two headings read alike, the source gives them in different places.
# Assays:
# [1] = Inhibitor activity (IA), depth of chemical embossing and degree of expansion ranked against BTA-P (Table II); set-up: key to Inhibitor Activity (IA): 1: Excellent; 2: Very Good; 3: Good; 4: Fair; 5: Poor; None; details: for Inhibitor Activity (IA): 10% by weight inhibitor in ink, scale 1 to 5, BTA-P benchmark = 1, 7 mil plastisol, 185 °C, 1.9 min
# Description: Table II sets forth a number of properties of the examples and comparative examples which were made and tested. Most of these compounds were prepared using the direct milling procedure and then evaluated for inhibitor activity, ghosting and embossing definition.
# The inhibited inks (at 10% by weight inhibitor concentration) were printed on 7 mils of an expandable plastisol coated onto a glass mat which was saturated with a non-expandable plastisol. This was done on a flat-bed gravure proof press using a 100 line screen step-wedge gravure plate. The steps ranged from a deep shadow tone to a shallow highlight tone. The inks printed and dried without any tack.
# The printed samples were coated with 10 mils of a clear plastisol wearlayer and heated for 1.9±0.1 minutes at an air temperature of 185°±2° C. in a Werner. Mathis oven to fuse and expand the foamable plastisol to about 14 mils (a 2:1 blow ratio). The thickness of the printed coated areas (i.e., restricted area) was measured in mils and compared to the thickness of the expanded unprinted surrounding areas. This difference was recorded as depth of chemical embossing and was used along with the degree of expansion in the inhibited area to access the inhibitor activity (IA).
# The inhibitor activity of the BTA-P derivative was established as the benchmark and on a scale of 1 to 5 was given a rating of 1 (five on the scale being less than one mil of overall chemical embossing). This is a subjective ranking where the other compounds were evaluated for inhibitor activity by comparing them to BTA-P, both numerically and visually.
# physchem = format: physicochemical; details: for Solubility in H2O / solubility at 24 h: water; for Solubility in H2O: 24 h
Compound,Inhibitor Activity (IA) [1],Solubility in iPrOH (physchem; 1440 min) [% BY WT],solubility at 24 h (physchem) [µg/mL],further results
"CS(=O)(=O)NCn1nnc2ccccc21 [BTA-MSA, 1-(1'-methanesulfonamido) methyl benzotriazole]",5,–,–,–
"CC(N1CCCC1=O)n1nnc2ccccc21 (stereo not shown) [BTA-PY, 1-(1'-(2'-oxopyrrolidin-1'-yl)ethyl) benzotriazole]",5,–,–,–
"1Bis(2-ethylhexyl)aminomethyltolyltriazole [TTA-EH, reference compound]",2,> 50,–,Solubility in H2O (physchem): < 0.01 % BY WT
"O=C(NCn1nnc2ccccc21)c1ccccc1 [BTA-PA, reference compound]",N,–,–,–
"Cc1ccc2c(c1)nnn2CNC(=O)NCn1nnc2cc(C)ccc21 [Example 5-TTA-U, 1,3-bis(5'-tolyltriazol-1'-ylmethyl) urea]",3,–,–,–
"c1ccc(-c2nc(NCn3nnc4ccccc43)nc(NCn3nnc4ccccc43)n2)cc1 [BTA-BG, 2,4-bis(benzotriazol-1'-ylmethyl) benzoguanamine]",4,–,–,–
"c1ccc2c(c1)ncn2CN1CCN(Cn2cnc3ccccc32)CC1 [BI-P, N,N'-Bis(Benzimidazol-1-yl Methyl) Piperazine]",1,0.211,530,–
"CC(n1nnc2ccccc21)n1c2ccccc2c2ccccc21 (stereo not shown) [BTA-C, 1-(1'-(Carbazo-9'-yl)Ethyl) Benzotriazole, reference compound]",N,–,–,–
"S=C(NCn1nnc2ccccc21)NCn1nnc2ccccc21 [BTA-TU, 1,3-bis(benzotriazol-1-ylmethyl) thiourea]",2,0.011,10,–
"CN(Cn1nnc2ccccc21)C(=O)N(C)Cn1nnc2ccccc21 [BTA-DMU, 1,3-Bis(benzotriazol-1'-ylmethyl) N,N'-dimethyl urea]",3,–,–,–
"ON(Cn1nnc2ccccc21)Cn1nnc2ccccc21 [BTA-NOH, N,N-bis (benzotriazol-1-yl methyl) hydroxylamine]",1,1.08,800,–
"O=C(O)c1ccc(S(=O)(=O)NCn2nnc3ccccc32)cc1 [BTA-4CBSA, N-(Benzotriazol-1-yl Methyl)-4'-Carboxybenzene Sulfonamide]",1,0.137,110,–
"c1ccc2c(c1)nnn2Cn1nnc2ccccc21 [BTA-D, reference compound]",N,–,–,–
"1Bis(hydroxyethyl)aminomethyltotyltriazole [TTA-HE, reference compound]",3,> 50,–,Solubility in H2O (physchem): ~50 % BY WT
"c1ccc2[nH]nnc2c1 [BTA, Benzotriazole, reference compound]",2,53.9,19800,–
"O=S(=O)(NCn1nnc2ccccc21)c1cccc(S(=O)(=O)NCn2nnc3ccccc32)c1 [BTA-BDSA, 1(1',3'-benzenedisulfonamido)methyl benzotriazole]",1,0.120,890,–
"CCCCc1ccc2c(c1)nnn2CNC(=O)NCn1nnc2cc(CCCC)ccc21 [Example 5-BBTA-U, 1,3-Bis(5'-Butyl Benzotriazol-1'-yl Methyl) Urea]",3,–,–,–
c1ccc2c(c1)nnn2CNc1nc(NCn2nnc3ccccc32)nc(NCn2nnc3ccccc32)n1 [Example 3BTA-M],3,–,–,–
"O=S(=O)(NCn1nnc2ccccc21)c1cccc2c(S(=O)(=O)NCn3nnc4ccccc43)cccc12 [BTA-NDSA, 1(1',5'-naphthalenedisulfonamido) methyl benzotriazole]",1,0.051,510,–
"O=C(NCn1nnc2ccccc21)NCn1nnc2ccccc21 [BTA-U, 1,3-bis(benzotriazol-1'-ylmethyl) urea]",1,0.08,20,–
"O=C(NN(Cn1nnc2ccccc21)Cn1nnc2ccccc21)c1ccccc1 [BTA-HYR, 1-Bis(Benzotriazol-1'-yl Methyl)-2-Benzoyl Hydrazide]",1,0.019,60,–
"c1ccc2c(c1)nnn2CNCn1nnc2ccccc21 [BTA-A, bis(benzotriazol-1-ylmethyl) amine]",1,0.028,390,–
"Tolyltriazole [TTA, reference compound]",2,52.9,–,Solubility in H2O (physchem): 0.55 % BY WT
"O=C(NCn1nnc2ccccc21)NC(=O)NCn1nnc2ccccc21 [BTA-B, 1,5-Bis(Benzotriazol-1'-yl Methyl) Biuret]",4,–,–,–
"c1ccc2[nH]cnc2c1 [BI, Benzimidazole]",2,–,–,"Solubility in iPrOH (physchem; isopropyl alcohol, room temperature, 24 hours): 15.30 % BY WT; solubility at 24 h (physchem; H2O, room temperature, 24 hours, read-out: Solubility in H2O): 5000 µg/mL; Inhibitor effectiveness in words [1]: effective inhibitor"
"O=C(O)CN(Cn1nnc2ccccc21)Cn1nnc2ccccc21 [BTA-G, N,N-bis(benzotriazol-1-ylmethyl) glycine]",1,0.914,6900,–
O=C1CNC(=O)N1Cn1nnc2ccccc21 [BTA-H],5,–,–,–
